Laboratory results as given in patent US20240327415A1, “Multicomponent Complexes, Including Salts, Crystalline Forms, and Hydrates and Solvates of ENT1 Inhibitors” (iTeos Belgium SA, priority 2023, published 2024).
Where a name gives a salt, the structure may show the parent alone.

Assay: solid form screen of Compound 1 di(hydrogen sulfate), XRPD damp and dried (Example 1)
Assay type: physicochemical
Method: Example 1—Solid Form Screen of Compound 1 Di(Hydrogen Sulfate): Amorphous Compound 1 di(hydrogen sulfate) (made in accordance with Example 7) was prepared and then subject to various crystallization techniques—temperature cycling, evaporation, crash cooling, solvent drop grinding, anti-solvent addition—each of which is described in more detail below. In addition, a reactive crystallization experiment was also conducted on Compound 1, which is a free base.
Temperature Cycling: Approximately 20 mg of Amorphous Compound 1 di(hydrogen sulfate) was added to 24×1.5 mL screw cap vials. Into each vial, the appropriate solvent system was added in 50 μL aliquots in an attempt to form slurries at 40° C. When the addition was completed, the samples were temperature-cycled between 40° C. and 5° C., using 0.1° C./min ramp and 1 hr hold between steps. After about 24 hours of cycling, anti-solvent addition at 40° C. was carried out on samples that were clear solutions. Temperature cycling was continued for all samples for a total of 48 hours. After 48 hours of cycling, any solids present in the samples were isolated via centrifugation and analyzed damp by XRPD to assess the polymorphic form.
Evaporation: Solutions of Amorphous Compound 1 di(hydrogen sulfate) were prepared in different solvent systems. […] The solutions were then left open to allow the solvents to evaporate at ambient. Solids observed post-evaporation were analyzed by XRPD.
Crash Cooling: Solutions of Amorphous Compound 1 di(hydrogen sulfate) were prepared in different solvent systems. […] The solutions were placed in a refrigerator to crash-cool the samples to about 5° C. for 48 hours. Solids observed at this point were analyzed by XRPD. The rest of the samples where no solids were observed were placed in a freezer to allow the samples to crash-cool further to about −20° C. After about 48 hours in the freezer, samples with solids were analyzed by XRPD. For samples where solids were still not observed, anti-solvent addition was carried out at 5° C., and the samples returned to the freezer. After 4 days in the freezer post-ASA, any solids present were analyzed by XRPD.
Solvent Drop Grinding: 15-20 mg of Amorphous Compound 1 di(hydrogen sulfate) was added to 24×2 mL bead mill tubes. Into each tube, 5 μL of the appropriate solvent system was added at ambient. Two small stainless-steel beads were placed in each tube, and the samples were milled using the following program: (1) Speed=5000 rpm; (2) Cycle=10×90 s; (3) Pause=10 s; (4) Repeat=duplicate. For samples where dissolution was suspected during the milling, additional amorphous material was added, and the milling program repeated. When the milling program was completed, the residual solids were analyzed by XRPD.
Anti-solvent Addition: 20-25 mg of Amorphous Compound 1 di(hydrogen sulfate) was added to 24×1.5 mL screw cap vials. Into each vial, 100 μL of the appropriate solvent system was added at 25° C. to form solutions. Where complete dissolution was not observed, an additional 400 μL of solvent was added and the samples were stirred at 50° C. to allow further dissolution. The mother liquors of these samples were needle-filtered into a new set of vials. To all the solutions, anti-solvent addition was carried out at 25° C. Where sufficient precipitation was observed post-ASA, these were isolated and analyzed by XRPD. Where thin slurries or clear solutions were observed post-ASA, these were cooled to 5° C. at 0.1° C./min and stirred at 5° C. for ca 18 h. Any solids present were isolated and analyzed by XRPD.
Reactive Crystallization: 15-20 mg of Compound 1 was added to 18×1.5 mL screw cap vials. Into each vial, 100 μL of the appropriate solvent system was added at 40° C. 2.05 mole equiv. of H2SO4 was also added to the vials as solutions in 100 μL of the respective solvent systems. The samples were stirred at 40° C. for another approximately 30 mins, cooled to 5° C. at 0.1° C./min and left stirring at 5° C. for about 18 h. […]

## COc1cc(C(=O)O[C@@H]2CCCOc3cc(cc(OC)c3OC)C(=O)NCCCN3CCCN(CC2)CC3)cc(OC)c1OC [Compound 1 di(hydrogen sulfate)]
1,4-Dioxane
  XRPD (Damp) Evaporation: 2, PC
  XRPD (Damp) Temp cycling: 2, PC
  XRPD (Dried) Anti-solvent addition: Am
  XRPD (Dried) Evaporation: 2, PC
  XRPD (Dried) Solvent drop grinding: Am
  XRPD (Dried) Temp cycling: 2, PC
1-Propanol
  XRPD (Damp) Anti-solvent addition: 2, PC
  XRPD (Damp) Solvent drop grinding: 2, PC
  XRPD (Dried) Anti-solvent addition: 2, PC
  XRPD (Dried) Temp cycling: Am
2-Methyl THF
  XRPD (Damp) Evaporation: 2, PC
  XRPD (Dried) Anti-solvent addition: Am
  XRPD (Dried) Evaporation: 2, PC
  XRPD (Dried) Solvent drop grinding: Am
  XRPD (Dried) Temp cycling: Am
2-Propanol
  XRPD (Damp) Evaporation: 2, PC
  XRPD (Dried) Anti-solvent addition: Am
  XRPD (Dried) Reactive cryst.: Am
  XRPD (Dried) Temp cycling: Am
2-propanol:water (50:50% v/v)
  XRPD (Damp) Evaporation: 2, PC
  XRPD (Dried) Evaporation: 2, PC
2-propanol:water (75:25% v/v)
  XRPD (Damp) Crash cooling: 2, PO
  XRPD (Damp) Reactive cryst.: 2, PC
  XRPD (Dried) Crash cooling: 2, PO
Acetone
  XRPD (Damp) Evaporation: 2, PC
  XRPD (Damp) Temp cycling: 2, PC
  XRPD (Dried) Anti-solvent addition: Am
  XRPD (Dried) Evaporation: 2, PC
  XRPD (Dried) Solvent drop grinding: Am
  XRPD (Dried) Temp cycling: 2, PC
Acetonitrile
  XRPD (Damp) Evaporation: 6, PC
  XRPD (Dried) Evaporation: 6+, PC
DCM
  XRPD (Dried) Solvent drop grinding: Am
DMF
  XRPD (Dried) Anti-solvent addition: Am
  XRPD (Dried) Solvent drop grinding: Am
DMSO
  XRPD (Dried) Anti-solvent addition: Am
  XRPD (Dried) Solvent drop grinding: Am
Ethanol:water (90:10% v/v)
  XRPD (Dried) Evaporation: 2, PC
Ethyl Acetate
  XRPD (Dried) Reactive cryst.: Am
  XRPD (Dried) Solvent drop grinding: Am
  XRPD (Dried) Temp cycling: Am
Isopropyl Acetate
  XRPD (Dried) Solvent drop grinding: Am
  XRPD (Dried) Temp cycling: Am
MEK
  XRPD (Damp) Temp cycling: 2, PC
  XRPD (Dried) Solvent drop grinding: Am
  XRPD (Dried) Temp cycling: 2, PC
Methanol
  XRPD (Damp) Solvent drop grinding: 2, PC
  XRPD (Dried) Reactive cryst.: Am
  XRPD (Dried) Solvent drop grinding: 2, PC
  XRPD (Dried) Temp cycling: Am
MiBK
  XRPD (Dried) Reactive cryst.: Am
  XRPD (Dried) Solvent drop grinding: Am
  XRPD (Dried) Temp cycling: Am
THF
  XRPD (Damp) Evaporation: 2, PC
  XRPD (Dried) Evaporation: 2, PC
  XRPD (Dried) Solvent drop grinding: Am
Toluene
  XRPD (Dried) Solvent drop grinding: Am
  XRPD (Dried) Temp cycling: Am
